Data on 7 compounds can be found in patent US11964973B2 (priority 2019, dated 2024).

pEC50, pIC50: −log10 of the molar value. Like-named read-outs stand apart in the source and are kept apart here.

Assay [1] relates to naïve human CD8 T cells (IFN-γ). The assay is described as follows: Human CD8 T cells IFN-γ assay. The format is cell-based. The following applies: T-cell. How it is done: Assay 8: Human CD8 T Cells IFN-γ Assay
Frozen naïve human CD8 T cells were thawed in AIM-V media, incubated for 2 h in 37° C., and counted. The 384-well tissue culture plate was coated overnight at 4° C. with 20 μL anti-human CD3 at 0.05 μg/mL in PBS, which was removed off the plate before 40,000 cells per 40 microliters CD8 T cells with 0.1 μg/mL soluble anti-human CD28 were added to each well. The compounds were transferred using an Echo liquid handler to the cell plate immediately after the cells were plated. After 20 h incubation at 37° C. incubator, 3 microliters per well supernatants transferred into a new 384-well white assay plate for cytokine measurement.
Interferon-γ (IFN-γ) was quantitated using the AlphLISA kit (Cat #AL217) as described by the manufacturer manual (Perkin Elmer). The counts from each well were converted to IFN-γ concentration (pg/mL).

The next assay concerns the target human DGKζ (Homo sapiens (Human), UniProt Q13574). The assay is described as follows: biochemical. The format is biochemical. The following applies: liposome (LIPGLO) assay; read-out: DGKζ LIPGLO IC50.
The test system of assay [2] is Human venous whole blood (IFN-γ). The assay is described as follows: Human whole blood IFN-γ assay. The format is cell-based. How it is done:
Assay 10: Human Whole Blood IFN-γ Assay
Human venous whole blood (22.5 μL per well), obtained from healthy donors, was pre-treated with compounds for one hour at 37° C. in a humidified 95% air/5% CO2 incubator. The blood was stimulated with 2.5 μL anti-human CD3 and anti-CD28 mAb at a final concentration of 1 μg/mL each for 24 hours at 37° C. IFN-γ in the supernatants was measured using AlphLISA kit (Cat #AL217).

Assay [3] deals with OT-1 CD8+ T cells with SIINFEKL-loaded MC38 tumor cells. The assay is described as follows: Murine cytotoxic T lymphocyte assay (IFN-γ). The following applies: Mus musculus, MC-38; for pIC50: murine cytotoxic T lymphocyte, IFN-γ, read-out: msCTL INFg IC50. The assay is classed as cell-based, mouse. An outline of the steps: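 OT-1 CD8+ T cells, expanded 5 days with OVA peptide and mIL2, pretreated 1 h with DGK inhibitor, then cocultured overnight at 37 °C with peptide-pulsed MC38 cells (1:10 ratio). IFN-γ in supernatant measured after 24 h by AlphaLisa.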

Assay [4] concerns the target T1, DGKα (Homo sapiens (Human), UniProt P23743). The assay is described as follows: biochemical. The format is biochemical. The following applies: liposome (LIPGLO) assay; read-out: DGKα LIPGLO IC50.
The target of assay [5] is T1, DGKα. The assay is described as follows: DGKα ADPGLO assay. The assay is classed as biochemical. (ADP-Glo first removes unused ATP, then detects ADP through luciferase.)
In another assay the test system is naïve human CD8 T cells. The assay is described as follows: CellTiter-Glo CD8 T cell proliferation assay. Conditions: Homo sapiens, read-out: CD8 GLO Normalized EC50. The assay is classed as cell-based. In a few lines: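 Thawed naïve human CD8 T cells (20 k/well) were stimulated with plate-bound anti-CD3 (0.1 μg/mL coating) and 0.5 μg/ml soluble anti-CD28, with compounds added right after plating. After 72 h at 37° C, proliferation was read by CellTiter-Glo luminescence. The signal from stimulated cells was taken as background.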
In general terms: In ATP-based viability assays light output follows the ATP content of the culture.

The mark [6] stands for this setting: read-out: HuCD8 INFG Normalized EC50.
Setting [7] is: Homo sapiens, 24 h, human whole blood, anti-CD3 plus anti-CD28, 24 hours, read-out: INFg Whole Blood Normalized Agonist EC50.

T1 sequence (P23743 whole entry, looked up): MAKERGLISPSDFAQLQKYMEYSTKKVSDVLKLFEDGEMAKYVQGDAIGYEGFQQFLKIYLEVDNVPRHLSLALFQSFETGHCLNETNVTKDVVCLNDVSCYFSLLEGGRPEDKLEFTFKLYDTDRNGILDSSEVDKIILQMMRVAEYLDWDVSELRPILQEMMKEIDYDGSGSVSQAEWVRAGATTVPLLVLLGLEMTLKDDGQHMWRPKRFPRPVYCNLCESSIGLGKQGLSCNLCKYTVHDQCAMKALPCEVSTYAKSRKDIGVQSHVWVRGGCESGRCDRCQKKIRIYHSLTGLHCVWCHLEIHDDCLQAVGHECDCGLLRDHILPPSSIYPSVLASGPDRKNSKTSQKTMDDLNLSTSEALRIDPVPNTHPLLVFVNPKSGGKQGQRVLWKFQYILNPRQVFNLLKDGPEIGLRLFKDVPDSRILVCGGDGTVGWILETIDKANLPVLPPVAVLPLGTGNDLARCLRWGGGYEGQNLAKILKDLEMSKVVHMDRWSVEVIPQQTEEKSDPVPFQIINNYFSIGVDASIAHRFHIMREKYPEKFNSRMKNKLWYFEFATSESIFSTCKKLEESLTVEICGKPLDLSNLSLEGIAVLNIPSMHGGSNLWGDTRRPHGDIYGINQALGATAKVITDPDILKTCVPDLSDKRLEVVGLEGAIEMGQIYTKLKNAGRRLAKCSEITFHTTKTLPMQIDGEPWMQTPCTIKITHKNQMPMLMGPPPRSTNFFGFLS
human DGKζ, sequence (Q13574 whole entry, looked up): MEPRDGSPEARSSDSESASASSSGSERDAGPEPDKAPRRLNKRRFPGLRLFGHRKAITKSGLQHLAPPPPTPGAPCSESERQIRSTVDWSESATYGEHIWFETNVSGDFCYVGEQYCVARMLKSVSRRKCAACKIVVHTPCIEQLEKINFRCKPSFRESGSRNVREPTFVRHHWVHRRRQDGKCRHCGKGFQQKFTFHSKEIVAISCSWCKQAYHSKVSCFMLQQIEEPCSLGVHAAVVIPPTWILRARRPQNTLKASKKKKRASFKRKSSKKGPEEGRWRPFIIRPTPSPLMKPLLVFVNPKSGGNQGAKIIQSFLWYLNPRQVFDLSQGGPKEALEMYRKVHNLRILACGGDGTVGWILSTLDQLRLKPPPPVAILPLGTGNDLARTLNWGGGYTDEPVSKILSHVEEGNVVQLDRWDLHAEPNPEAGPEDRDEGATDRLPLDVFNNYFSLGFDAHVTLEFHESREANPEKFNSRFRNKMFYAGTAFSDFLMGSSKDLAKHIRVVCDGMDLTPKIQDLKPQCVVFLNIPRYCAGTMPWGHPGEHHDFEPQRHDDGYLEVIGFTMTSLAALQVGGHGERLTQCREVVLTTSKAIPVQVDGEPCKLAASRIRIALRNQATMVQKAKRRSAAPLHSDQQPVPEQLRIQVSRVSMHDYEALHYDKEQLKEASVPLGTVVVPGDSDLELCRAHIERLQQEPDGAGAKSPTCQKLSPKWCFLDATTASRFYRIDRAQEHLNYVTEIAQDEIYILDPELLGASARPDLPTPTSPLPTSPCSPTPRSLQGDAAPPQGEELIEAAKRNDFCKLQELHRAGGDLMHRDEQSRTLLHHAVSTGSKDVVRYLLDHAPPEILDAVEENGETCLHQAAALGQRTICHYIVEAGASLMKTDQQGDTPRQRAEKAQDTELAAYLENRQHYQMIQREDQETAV

As to `Cn1c(=O)cc(N2CCC(Oc3ccc(OC(F)(F)F)cc3)CC2)c2nc(C#N)ccc21` [Example 52, 5-methyl-6-oxo-8-(4-(4-(trifluoromethoxy)phenoxy)piperidin-1-yl)-5,6-dihydro-1,5-naphthyridine-2-carbonitrile], the pEC50 in assay [1] (setting [6]) is 6.00; in assay [2] (setting [7]) it was 5.57. In addition, the negative-log IC50 (pIC50) on human DGKζ was 5.42; in assay [3], 6.82; at DGKα [4], 6.10.
Regarding `C[C@@H]1CN(c2cc(=O)n(C)c3ccc(C#N)nc23)CC[C@H]1Oc1cccc(C2CC2)c1` (single isomer, unassigned) [Example 92], the pIC50 at DGKα [5] is 9.29; on human DGKζ, 4.80; at DGKα [4] it was 7.55. Further, in assay [2] (human whole blood, anti-CD3 plus anti-CD28, 24 hours, read-out: INFg Whole Blood Normalized Agonist EC50), the pEC50 was 6.04.
With `CC[C@@H]1CN(c2cc(=O)n(C)c3ccc(C#N)nc23)CC[C@H]1Oc1cccc(C(C)C)c1` (single isomer, unassigned) [Example 138], the pIC50 is 8.28 against DGKα [5], 6.10 at human DGKζ and 7.62 on DGKα [4]. For the same compound, the pEC50 in assay [2] (read-out: INFg Whole Blood Normalized Agonist EC50, human whole blood, anti-CD3 plus anti-CD28, 24 hours) was 6.47.
As for `Cn1c(=O)c(C#N)c(N2CCC(Oc3ccc(C(C)(C)C)cc3)CC2)c2nc(Cl)ccc21` [Example 15, 4-(4-(4-(tert-butyl)phenoxy)piperidin-1-yl)-6-chloro-1-methyl-2-oxo-1,2-dihydro-1,5-naphthyridine-3-carbonitrile], the pEC50 in assay [1] (setting [6]) was 6.06; in assay [2] (setting [7]) it was 5.12; with naïve human CD8 T cells it was 6.49. Besides, the negative logarithm of the IC50 (pIC50) on human DGKζ was 5.13; in assay [3] it was 6.54; at DGKα [4], 6.29.
For the compound `Cc1ccc(OC2CCN(c3c(C#N)c(=O)n(C)c4ccc(Cl)nc34)CC2)cc1` [Example 21, 6-chloro-1-methyl-2-oxo-4-(4-(p-tolyloxy)piperidin-1-yl)-1,2-dihydro-1,5-naphthyridine-3-carbonitrile], the pEC50 in assay [1] (setting [6]) is 6.80; in the assay with naïve human CD8 T cells it was 7.04. In addition, the figures for the pIC50 (at human DGKζ; in assay [3]; on DGKα [4]) were 5.11, 5.77 and 6.11, respectively.
`COc1cc(-c2c(N3CCC(Oc4ccc(OC(F)(F)F)cc4)CC3)c3nc(C#N)ccc3n(C)c2=O)ccn1` [Example 241, 7-(2-methoxypyridin-4-yl)-5-methyl-6-oxo-8-(4-(4-(trifluoromethoxy)phenoxy)piperidin-1-yl)-5,6-dihydro-1,5-naphthyridine-2-carbonitrile]: the pEC50 in assay [1] (read-out: HuCD8 INFG) was 5.89; in assay [2] (Homo sapiens, human whole blood IFN-γ, read-out: INFg Whole Blood), 5.00; in assay [3] (murine cytotoxic T lymphocyte assay, read-out: msCTL), 6.24.
With `Cn1c(=O)c(C#N)c(N2CCC(Oc3ccccc3Cl)CC2)c2nc(Cl)ccc21` [Example 18, 6-chloro-4-(4-(2-chlorophenoxy)piperidin-1-yl)-1-methyl-2-oxo-1,2-dihydro-1,5-naphthyridine-3-carbonitrile], the pEC50 is 6.72 in assay [1] (setting [6]), 5.00 in assay [2] (setting [7]) and 7.10 with naïve human CD8 T cells. Further, the pIC50 on human DGKζ was 4.89; in assay [3], 5.82; at DGKα [4], 5.59.

What is called pIC50 is −log10 of the IC50, conventionally taken in molar units.
